Measurements as given in PubChem BioAssay AID248 (DTP/NCI, 2004).
Values joined by “and” are separate entries in the source; they are usually repeats but may differ in a detail not shown here. Identical values can stand only once. Toxic doses and inconclusive results are not listed. Rule as the data show it: active = T/C of 150% or more; inactive = T/C below 125%.

Tested on: L1210 leukemia ip in BDF1 mice, survival T/C
Test: NCI In Vivo Anticancer Drug Screen. Data for tumor model L1210 Leukemia (intraperitoneal) in B6D2F1 (BDF1) mice
Conditions: endpoint: mean survival time, higher = longer survival
In short: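 Survival endpoint. Drug-treated group vs vehicle group, expressed as T divided by C. Tumor passaged by transplantation.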

[1] = dose: 100.0 mg/kg/injection, schedule: Q01DX009 (ip), vehicle: Klucel (hydroxypropylcellulose) (HPC)
[2] = dose: 200.0 mg/kg/injection, schedule: Q01DX009 (ip), vehicle: Klucel (hydroxypropylcellulose) (HPC)
[3] = dose: 150.0 mg/kg/injection, schedule: Q01DX001 (ip), vehicle: other
[4] = dose: 100.0 mg/kg/injection, schedule: Q04DX003 (ip), vehicle: saline with Tween-80
[5] = dose: 200.0 mg/kg/injection, schedule: Q04DX003 (ip), vehicle: saline with Tween-80
[6] = dose: 100.0 mg/kg/injection, schedule: Q01DX001 (ip), vehicle: saline
[7] = dose: 200.0 mg/kg/injection, schedule: Q01DX001 (ip), vehicle: saline
[8] = dose: 400.0 mg/kg/injection, schedule: Q01DX001 (ip), vehicle: saline
[9] = dose: 100.0 mg/kg/injection, schedule: Q04DX003 (ip), vehicle: saline
[10] = dose: 200.0 mg/kg/injection, schedule: Q04DX003 (ip), vehicle: saline
[11] = dose: 400.0 mg/kg/injection, schedule: Q04DX003 (ip), vehicle: saline

Measured: T/C

OCC1OC([Se][Se]C2OC(CO)C(O)C(O)C2O)C(O)C(O)C1O (stereo not drawn)
inactive: dose: 6.25 mg/kg/injection, schedule: Q01DX009 (ip), vehicle: saline 99 % of control | dose: 12.5 mg/kg/injection, schedule: Q01DX009 (ip), vehicle: saline 100 % of control | dose: 25.0 mg/kg/injection, schedule: Q01DX009 (ip), vehicle: saline 100 % of control | dose: 100.0 mg/kg/injection, schedule: Q04DX002 (ip), vehicle: saline 105 % of control

CCCCC(CCCC)(C(N)=O)C(=O)OCC
inactive: [1] 105 % of control | [2] 100 % of control | dose: 400.0 mg/kg/injection, schedule: Q01DX009 (ip), vehicle: Klucel (hydroxypropylcellulose) (HPC) 94 % of control

CCN1CCCC(SC(=O)C(O)(c2ccccc2)c2ccccc2)C1 (stereo not drawn)
inactive: dose: 75.0 mg/kg/injection, schedule: Q01DX001 (ip), vehicle: other 94 % of control | [3] 94 % of control | dose: 300.0 mg/kg/injection, schedule: Q01DX001 (ip), vehicle: other 88 % of control

CCOC(=O)c1ccc(NCc2cnc(N)c(C#N)n2)cc1
inactive: [4] 91 % of control | [5] 95 % of control | dose: 400.0 mg/kg/injection, schedule: Q04DX003 (ip), vehicle: saline with Tween-80 95 % of control

O=[N+]([O-])c1ccc(NCCO)cc1
inactive: dose: 50.0 mg/kg/injection, schedule: Q01DX001 (ip), vehicle: saline 96 % of control | [6] 96 % of control | [7] 102 % of control | [8] 96 % of control

OCC1N=C(c2ccccc2)OC1c1ccccc1 (stereo not drawn)
inactive: dose: 50.0 mg/kg/injection, schedule: Q01DX009 (ip), vehicle: saline with Tween-80 94 % of control | dose: 100.0 mg/kg/injection, schedule: Q01DX009 (ip), vehicle: saline with Tween-80 102 % of control | dose: 200.0 mg/kg/injection, schedule: Q01DX009 (ip), vehicle: saline with Tween-80 96 % of control

Cc1ccc(S(=O)(=O)N(CC(=O)O)c2ccccc2-c2ccccc2)cc1
inactive: [6] 100 % of control | [7] 89 % of control | [8] 100 % of control

COC(=O)c1cncc(C(=O)OC)c1
inactive: dose: 100.0 mg/kg/injection, schedule: Q04DX003 (ip), vehicle: saline sonified 95 % of control | dose: 200.0 mg/kg/injection, schedule: Q04DX003 (ip), vehicle: saline sonified 104 % of control | dose: 400.0 mg/kg/injection, schedule: Q04DX003 (ip), vehicle: saline sonified 97 % of control

O=C(N/N=C/c1ccco1)C1CCCO1 (stereo not drawn)
inactive: dose: 25.0 mg/kg/injection, schedule: Q01DX009 (ip), vehicle: Klucel (hydroxypropylcellulose) (HPC) 101 % of control | dose: 50.0 mg/kg/injection, schedule: Q01DX009 (ip), vehicle: Klucel (hydroxypropylcellulose) (HPC) 102 % of control | [1] 101 % of control and 114 % of control | [2] 106 % of control

O=C1C[C@@H](c2ccc(O)cc2)[C@@]2(O1)C(=O)O[C@H]([C@@H](O)CO)[C@@H]2O
inactive: dose: 75.0 mg/kg/injection, schedule: Q01DX001 (ip), vehicle: saline 98 % of control | dose: 75.0 mg/kg/injection, schedule: Q01DX009 (ip), vehicle: saline 96 % of control | dose: 75.0 mg/kg/injection, schedule: Q04DX003 (ip), vehicle: saline 95 % of control | dose: 150.0 mg/kg/injection, schedule: Q01DX001 (ip), vehicle: saline 96 % of control | dose: 150.0 mg/kg/injection, schedule: Q01DX009 (ip), vehicle: saline 93 % of control | dose: 150.0 mg/kg/injection, schedule: Q04DX003 (ip), vehicle: saline 98 % of control | dose: 300.0 mg/kg/injection, schedule: Q01DX001 (ip), vehicle: saline 97 % of control | dose: 300.0 mg/kg/injection, schedule: Q01DX009 (ip), vehicle: saline 100 % of control | dose: 300.0 mg/kg/injection, schedule: Q04DX003 (ip), vehicle: saline 94 % of control

COC(=O)c1ccccc1NC(=O)CCl
inactive: [4] 99 % of control | [5] 91 % of control

Nc1ccn(CC(=O)N2CCC3(CC2)SSC2(CCN(C(=O)Cn4ccc(N)nc4=O)CC2)S3)c(=O)n1
inactive: [9] 97 % of control | [10] 91 % of control | [11] 97 % of control

O=S(=O)(O)C(O)c1ccc(C(O)S(=O)(=O)O)cc1 (stereo not drawn)
inactive: [6] 107 % of control | [9] 92 % of control | [7] 107 % of control | [10] 102 % of control | [8] 105 % of control | [11] 95 % of control

CC/C(=N/OC(=O)NC)c1ccccc1
inactive: dose: 44.0 mg/kg/injection, schedule: Q01DX001 (ip), vehicle: other 94 % of control and 106 % of control | dose: 67.0 mg/kg/injection, schedule: Q01DX001 (ip), vehicle: other 93 % of control and 110 % of control | dose: 100.0 mg/kg/injection, schedule: Q01DX001 (ip), vehicle: other 102 % of control and 110 % of control | [3] 96 % of control and 108 % of control

CCOC(=O)C(C)(N)CCOCc1ccccc1 (stereo not drawn)
inactive: dose: 50.0 mg/kg/injection, schedule: Q01DX001 (ip), vehicle: carboxymethylcellulose (CMC) 100 % of control | dose: 100.0 mg/kg/injection, schedule: Q01DX001 (ip), vehicle: carboxymethylcellulose (CMC) 102 % of control | dose: 200.0 mg/kg/injection, schedule: Q01DX001 (ip), vehicle: carboxymethylcellulose (CMC) 100 % of control | dose: 400.0 mg/kg/injection, schedule: Q01DX001 (ip), vehicle: carboxymethylcellulose (CMC) 104 % of control
